In patent publication US12550885B2, “Red blood cell storage solutions, solution additives, and methods for improving the storage of red blood cells” (University of Cincinnati, priority 2016, dated 2026):

Columns and labels:
mouse pRBCs [1] = test: Hemolysis (cell-free hemoglobin) in stored mouse pRBCs; format: cell-based; conditions: mouse pRBCs stored at 4° C. for 14 days, inhibitor added prior to storage
Method: (§1) Human pRBCs were obtained from Hoxworth Blood Bank (Cincinnati, OH) and stored at 4° C. for 42 days according to standard blood banking practice. Murine pRBCs were obtained as previously described. Briefly, donor mice were anesthetized with intraperitoneal pentobarbital (0.1 mg/g body weight) and blood was collected via cardiac puncture into CP2D anticoagulant-coated syringes. CP2D was then added to the whole blood in a 1:7 ratio and gently mixed. Whole blood was centrifuged at 1,000 g for 10 minutes at 4° C. and platelet-rich plasma was discarded. Storage solution (AS-3) was added to erythrocytes in a 2:9 ratio using the original whole blood volume. Units were stored at 4° C. for 14 days.
(§2) Erythrocytes were pelleted from pRBC samples at 2,000 g for 10 minutes at 4° C. The supernatant from this spin was then centrifuged at 10,000 g for 10 minutes at 4° C. to pellet any remaining cells or platelets. The MP-rich supernatant from this second spin was used to characterize MP production and hemolysis. […]
(§3) Hemoglobin in the MP-rich supernatant was quantified using a Coulter AcT diff Analyzer (Beckman Coulter Corp., Brea, CA). Cell size (forward scatter), complexity (side scatter), phosphatidylserine exposure (annexin V positivity), and band 3 protein integrity (eosin-5-maleimide^68) were analyzed using an Attune flow cytometer (Life Technologies, Carlsbad, CA). […]

human pRBCs [2] = test: Hemolysis (cell-free hemoglobin) in stored human pRBCs; format: cell-based; conditions: human pRBCs stored at 4° C., increasing AT concentration
Method: as §1, §2, §3

human pRBCs [3] = test: Microparticle formation in stored human pRBCs (Nanoparticle Tracking Analysis); format: cell-based; conditions: human pRBCs stored at 4° C., increasing doses added prior to storage
Method: as §1
(§4) Erythrocytes were pelleted from pRBC samples at 2,000 g for 10 minutes at 4° C. The supernatant from this spin was then centrifuged at 10,000 g for 10 minutes at 4° C. to pellet any remaining cells or platelets. The MP-rich supernatant from this second spin was used to characterize MP production and hemolysis. MPs were pelleted using a 20,000 g spin for 30 minutes at 4° C.

mouse erythrocytes = test: Erythrocyte characterization by flow cytometry (size, complexity, phosphatidylserine exposure, band 3 integrity); format: cell-based
Method: as §1
Hemoglobin in the MP-rich supernatant was quantified using a Coulter AcT diff Analyzer (Beckman Coulter Corp., Brea, CA). Cell size (forward scatter), complexity (side scatter), phosphatidylserine exposure (annexin V positivity), and band 3 protein integrity (eosin-5-maleimide^68) were analyzed using an Attune flow cytometer (Life Technologies, Carlsbad, CA). Antibodies for ter119, CD235a, CD41, CD45, and Annexin V were acquired from BD Biosciences (San Diego, CA), and eosin-5-maleimide was obtained from Life Technologies (Carlsbad, CA).

mouse pRBCs [4] = test: Microparticle formation in stored mouse pRBCs (Nanoparticle Tracking Analysis); format: cell-based; conditions: mouse pRBCs stored at 4° C. for 14 days, inhibitor added prior to storage
Method: as §1, §4

C57BL/6 mice = test: Lung inflammation after transfusion of aged pRBCs, histology (edema, Gr1 inflammatory cells, ZO1 tight junctions); format: in vivo, mouse; conditions: 200 μl IV aged pRBCs treated with 125 μM AT, lungs taken 6 hours after transfusion
Method: Male C57BL/6 mice aged 8-10 weeks were purchased from Jackson Laboratories, fed standard laboratory diet and water ad libitum, and acclimated for 1 week in climate-controlled conditions with 12 hours light-dark cycles prior to use. Asm-deficient mice (Asm^−/−) on a C57BL/6 background were used and compared to syngenic C57Bl/6 wild type mice as controls. All experiments were approved by the Institutional Animal Care and Use Committee at the University of Cincinnati. To study the effect of AT treatment on lung inflammation following blood transfusion, mice received 200 μl IV injections of pRBCs or MPs. Lungs were taken 6 hours after transfusion for either histologic or Evans blue evaluation. Histologic lung sections were examined for evidence of lung edema with hematoxylin and inflammatory cells with anti-Gr1 antibodies (AbD Serotec, Raleigh, NC). Tight junction integrity was assessed by staining lung slides with Cy3-conjugated anti-ZO1 (Jackson ImmunoResearch, West Grove, PA). Endothelial cell permeability was assessed using the Evans blue method (source). In brief, mice were weighed and injected with 30 mg/kg Evans blue. After 10 minute of circulation time, mice were sacrificed and the pulmonary vasculature was flushed with 10 ml PBS. Lungs were dried at 55° C. for 24 hours and then incubated in 500 μl formamide for 48 hours at 55° C. Evans blue extraction calculated by measuring the optical density at 620 nm and comparing to a standard curve, and values were normalized to dry lung weight.

Row | Compound | hemolysis (cell-free hemoglobin) (mouse pRBCs [1]) | hemolysis (cell-free hemoglobin) (human pRBCs [2]) | MP formation (human pRBCs [3]) | age-related phosphatidylserine expression (annexin V positivity) (mouse erythrocytes; aged mouse erythrocytes) | age-related decrease in cell complexity (side scatter) (mouse erythrocytes; stored mouse erythrocytes) | reduction of band 3 degradation (eosin-5-maleimide) (mouse erythrocytes; stored mouse erythrocytes, 125 μM AT) [%] | age-related decrease in cell size (forward scatter) (mouse erythrocytes; stored mouse pRBCs) | MP formation (mouse pRBCs [4]) | disruption of tight junctions in the lung (ZO1) (C57BL/6 mice) | inflammatory cell recruitment to the lungs (C57BL/6 mice) | lung edema (C57BL/6 mice)
1 | CNCCC(Oc1ccc(C(F)(F)F)cc1)c1ccccc1 (stereo not drawn) [Fluoxetine] | reduced hemolysis | – | – | – | – | – | – | – | – | – | –
2 | CN(C)CCC=C1c2ccccc2CCc2ccccc21 [AT, Amitriptyline] | dose-dependent reduction in hemolysis | dose-dependent reduction in hemolysis | dose-dependent reduction of MP formation | reduced this age-related phosphatidylserine expression in a dose dependent manner | mitigated | ~50 | mitigated | dose-dependent reduction of MP formation | mitigated | greatly reduced | greatly reduced
